Experimental data as given in patent US20250195521A1 (Revolution Medicines, Inc., priority 2020, published 2025).
Like-named read-outs stand apart in the source and are kept apart here.

Key:
[1] = molecular target: KRAS G13D binding to BRAF RBD (Homo sapiens (Human), UniProt P01116+P62937, G13D); assay: Ras-Raf disruption/FRET/MOA assay, KRAS G13D; type: biochemical
Text: (§1) Note—The following protocol describes a procedure for monitoring disruption of K-Ras G12C(GMP-PNP) binding to BRAF^RBD by a compound of the invention. This protocol may also be executed substituting other Ras proteins or nucleotides.
(§2) The purpose of this biochemical assay was to measure the ability of test compounds to facilitate ternary complex formation between a nucleotide-loaded K-Ras isoform and Cyclophilin A; the resulting ternary complex disrupts binding to a BRAF^RBD construct, inhibiting K-Ras signaling through a RAF effector. Data is reported as IC50 values.
(§3) Compound was present in plate wells as a 10-point 3-fold dilution series starting at a final concentration of 30 μM. After incubation at 25° C. for 3 hours, a mixture of Anti-His Eu—W1024 and anti-GST allophycocyanin was then added to assay sample wells at final concentrations of 10 nM and 50 nM, respectively, and the reaction incubated for an additional 1.5 hours. […] Compounds that facilitate disruption of a K-Ras: RAF complex were identified as those eliciting a decrease in the TR-FRET ratio relative to DMSO control wells.

[2] = molecular target: NRAS G12C binding to BRAF RBD (Homo sapiens (Human), UniProt P01111+P62937, G12C); assay: Ras-Raf disruption/FRET/MOA assay, NRAS G12C; type: biochemical
Text: as §1, §2, §3

KRAS G12V = KRAS G12V (Homo sapiens (Human), UniProt P01116+P62937, G12V); assay: Ras-Raf disruption/FRET/MOA assay, KRAS G12V; type: biochemical
Summary of the method: (§4)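 Measured by TR-FRET: a decrease relative to DMSO indicates disruption of GMPPNP-Ras binding to BRAF^RBD, mediated by Cyclophilin A (25 μM). Compound was tested as a dilution series up to 30 μM with 3 h preincubation at 25° C.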

AsPC-1 (K-Ras G12D) [3] = assay: Potency assay: pERK; type: cell-based, human; details: Homo sapiens, ASPC1, read-out: pERK EC50
Summary of the method: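 Cells plated overnight, then exposed 4 h at 37 °C to 10-point 3-fold dilutions of compound, in duplicate. pERK read by AlphaLISA SureFire Ultra p-ERK1/2 lysate assay or by In-Cell Western (pERK antibody, DRAQ5 DNA normalisation). IC50 from 4-parameter sigmoidal fit of signal vs log concentration.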

NCI-H358 (K-Ras G12C) = assay: CellTiter-Glo cell viability assay, H358; type: cell-based, human; details: Homo sapiens, NCI-H358, 120 h
Summary of the method: (§5)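 Cells seeded, compound added directly, 5-day exposure. Plates to RT ~30 min, CellTiter-Glo luminescence read. Normalized to DMSO avg (x100); 4-parameter logistic fit.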

AsPC-1 (K-Ras G12D) [4] = assay: CellTiter-Glo cell viability assay, AsPC-1; type: cell-based, human; details: Homo sapiens, ASPC1, 120 h, read-out: AsPC-1 Cell Viability IC50
Summary of the method: as §5

KRAS G12D = KRAS G12D (Homo sapiens (Human), UniProt P01116+P62937, G12D); assay: Ras-Raf disruption/FRET/MOA assay, KRAS G12D; type: biochemical
Summary of the method: as §4

KRAS G13D = KRAS G13D (Homo sapiens (Human), UniProt P01116+P62937, G13D); assay: Ras-Raf disruption/FRET/MOA assay, KRAS G13D; type: biochemical
Summary of the method: as §4

KRAS WT = KRAS WT (Homo sapiens (Human), UniProt P01116+P62937); assay: Ras-Raf disruption/FRET/MOA assay, KRAS WT; type: biochemical
Summary of the method: as §4

KRAS G12C = KRAS G12C (Homo sapiens (Human), UniProt P01116+P62937, G12C); assay: Ras-Raf disruption/FRET/MOA assay, KRAS G12C; type: biochemical
Summary of the method: as §4

NRAS G12C = NRAS G12C (Homo sapiens (Human), UniProt P01111+P62937, G12C); assay: Ras-Raf disruption/FRET/MOA assay, NRAS G12C; type: biochemical
Summary of the method: as §4

KRAS G12S = KRAS G12S (Homo sapiens (Human), UniProt P01116+P62937, G12S); assay: Ras-Raf disruption/FRET/MOA assay, KRAS G12S; type: biochemical
Summary of the method: as §4

KRAS G13C = KRAS G13C (Homo sapiens (Human), UniProt P01116+P62937, G13C); assay: Ras-Raf disruption/FRET/MOA assay, KRAS G13C; type: biochemical
Summary of the method: as §4

[5] = read-out: H358 Cell Viability IC50, K-Ras G12C, 5-day treatment

Sequence of KRAS G12V (P01116 other isoform, or with tags, fused parts or gaps G12V): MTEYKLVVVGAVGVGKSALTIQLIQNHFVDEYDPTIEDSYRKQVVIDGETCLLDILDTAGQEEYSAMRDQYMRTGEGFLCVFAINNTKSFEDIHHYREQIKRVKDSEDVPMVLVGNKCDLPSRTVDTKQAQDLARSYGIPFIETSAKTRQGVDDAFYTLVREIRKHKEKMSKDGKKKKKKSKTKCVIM
Sequence of KRAS G12V (P62937 whole entry): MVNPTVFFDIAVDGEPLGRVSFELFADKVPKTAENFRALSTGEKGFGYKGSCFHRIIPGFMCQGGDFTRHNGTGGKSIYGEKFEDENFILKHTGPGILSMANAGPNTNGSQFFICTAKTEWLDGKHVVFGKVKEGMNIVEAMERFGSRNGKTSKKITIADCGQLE
Sequence of NRAS G12C binding to BRAF RBD (P01111 whole entry G12C): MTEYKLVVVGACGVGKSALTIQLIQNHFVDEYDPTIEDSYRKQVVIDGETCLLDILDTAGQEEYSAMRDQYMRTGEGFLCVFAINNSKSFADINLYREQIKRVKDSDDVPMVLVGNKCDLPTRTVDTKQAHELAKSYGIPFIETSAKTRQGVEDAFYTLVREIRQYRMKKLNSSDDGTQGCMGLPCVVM
Sequence of NRAS G12C binding to BRAF RBD (P62937 whole entry): as the sequence (P62937 whole entry) above
Sequence of NRAS G12C (P01111 whole entry G12C): as the sequence (P01111 whole entry G12C) above
Sequence of NRAS G12C (P62937 whole entry): as the sequence (P62937 whole entry) above
Sequence of KRAS G13D (P01116 other isoform, or with tags, fused parts or gaps G13D): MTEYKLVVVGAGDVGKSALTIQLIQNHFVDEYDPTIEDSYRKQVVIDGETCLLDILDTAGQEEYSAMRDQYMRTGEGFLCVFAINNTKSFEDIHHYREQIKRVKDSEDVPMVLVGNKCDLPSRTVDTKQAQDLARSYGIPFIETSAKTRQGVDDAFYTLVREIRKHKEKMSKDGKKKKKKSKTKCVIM
Sequence of KRAS G13D (P62937 whole entry): as the sequence (P62937 whole entry) above
Sequence of KRAS G13D binding to BRAF RBD (P01116 other isoform, or with tags, fused parts or gaps G13D): as the sequence (P01116 other isoform, or with tags, fused parts or gaps G13D) above
Sequence of KRAS G13D binding to BRAF RBD (P62937 whole entry): as the sequence (P62937 whole entry) above
Sequence of KRAS WT (P01116 other isoform, or with tags, fused parts or gaps): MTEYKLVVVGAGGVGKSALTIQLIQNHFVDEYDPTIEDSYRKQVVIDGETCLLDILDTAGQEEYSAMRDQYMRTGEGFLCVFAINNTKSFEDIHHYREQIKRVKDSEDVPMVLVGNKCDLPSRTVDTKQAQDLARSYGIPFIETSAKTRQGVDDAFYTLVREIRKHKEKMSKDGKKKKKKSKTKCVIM
Sequence of KRAS WT (P62937 whole entry): as the sequence (P62937 whole entry) above
Sequence of KRAS G12S (P01116 other isoform, or with tags, fused parts or gaps G12S): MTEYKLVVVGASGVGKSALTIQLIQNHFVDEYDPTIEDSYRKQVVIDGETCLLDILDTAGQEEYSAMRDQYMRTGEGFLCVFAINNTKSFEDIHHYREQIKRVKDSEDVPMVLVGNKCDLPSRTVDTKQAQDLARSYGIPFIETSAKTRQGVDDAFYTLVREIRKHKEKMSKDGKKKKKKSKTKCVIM
Sequence of KRAS G12S (P62937 whole entry): as the sequence (P62937 whole entry) above
Sequence of KRAS G13C (P01116 other isoform, or with tags, fused parts or gaps G13C): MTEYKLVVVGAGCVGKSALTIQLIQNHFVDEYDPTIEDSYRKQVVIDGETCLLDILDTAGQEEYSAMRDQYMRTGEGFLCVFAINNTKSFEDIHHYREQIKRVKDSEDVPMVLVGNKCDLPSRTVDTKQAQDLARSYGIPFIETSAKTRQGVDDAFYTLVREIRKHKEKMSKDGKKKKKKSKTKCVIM
Sequence of KRAS G13C (P62937 whole entry): as the sequence (P62937 whole entry) above
Sequence of KRAS G12D (P01116 other isoform, or with tags, fused parts or gaps G12D): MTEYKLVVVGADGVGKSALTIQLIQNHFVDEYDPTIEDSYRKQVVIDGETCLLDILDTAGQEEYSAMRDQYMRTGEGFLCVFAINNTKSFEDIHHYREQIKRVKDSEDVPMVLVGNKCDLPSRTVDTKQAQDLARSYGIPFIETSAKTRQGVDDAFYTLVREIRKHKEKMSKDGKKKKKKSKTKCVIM
Sequence of KRAS G12D (P62937 whole entry): as the sequence (P62937 whole entry) above
Sequence of KRAS G12C (P01116-2 other isoform, or with tags, fused parts or gaps G12C): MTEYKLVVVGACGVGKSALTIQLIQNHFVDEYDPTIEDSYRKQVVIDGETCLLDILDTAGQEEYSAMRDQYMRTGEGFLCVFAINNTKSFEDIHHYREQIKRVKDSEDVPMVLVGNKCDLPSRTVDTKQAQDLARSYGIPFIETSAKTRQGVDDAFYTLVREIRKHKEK
Sequence of KRAS G12C (P62937 whole entry): as the sequence (P62937 whole entry) above

| Compound | IC50 [1] [µM] | IC50 [2] [µM] | IC50 (KRAS G12V) [µM] | EC50 (AsPC-1 (K-Ras G12D) [3]) [µM] | IC50 (NCI-H358 (K-Ras G12C); [5]) [µM] | IC50 (AsPC-1 (K-Ras G12D) [4]) [µM] | IC50 (KRAS G12D) [µM] | IC50 (KRAS G13D) [µM] | IC50 (KRAS WT) [µM] | IC50 (KRAS G12C) [µM] | IC50 (NRAS G12C) [µM] | IC50 (KRAS G12S) [µM] | IC50 (KRAS G13C) [µM] | also measured |
| --- | --- | --- | --- | --- | --- | --- | --- | --- | --- | --- | --- | --- | --- | --- |
| CCn1c(-c2cccnc2[C@H](C)OC)c2c3cc(ccc31)-c1csc(n1)C[C@H](NC(=O)[C@H](C(C)C)N1CC[C@]3(CCN(C(=O)C#CC(C)(C)N(C)C)C3)C1=O)C(=O)N1CCC[C@H](N1)C(=O)OCC(C)(C)C2 (single isomer, unassigned) [Compound A425] | > 10 | 0.01 to 0.1 |  |  |  |  |  |  |  |  |  |  |  |  |
| CCn1c(-c2cnccc2COC)c2c3cc(ccc31)-c1cc(O)cc(c1)C[C@H](NC(=O)[C@H](C(C)C)N(C)C(=O)CN(C)C(=O)[C@@H]1N[C@H]1c1ccc(OC)cc1)C(=O)N1CCC[C@H](N1)C(=O)OCC(C)(C)C2 [Example 96] |  |  | 0.01 to 0.1 | < 5 | 1 to 10 | 1 to 10 | 0.1 to 1 | 0.1 to 1 | 0.01 to 0.1 | 0.01 to 0.1 | 0.01 to 0.1 | 0.01 to 0.1 | 0.01 to 0.1 |  |
| CCn1c(-c2cnccc2COC)c2c3cc(ccc31)-c1cc(O)cc(c1)C[C@H](NC(=O)[C@@H](CCNC1=NCCO1)C(C)C)C(=O)N1CCC[C@H](N1)C(=O)OCC(C)(C)C2 [Example 30] |  |  |  |  |  |  |  |  |  |  |  |  |  | IC50 (KRAS G12V; read-out: KRAS G12V FRET IC50): 1 to 10 µM; IC50 (NCI-H358 (K-Ras G12C); read-out: H358 Cell Viability IC50): 1 to 10 µM; IC50 (KRAS G12D; read-out: KRAS G12D FRET IC50): > 10 µM; IC50 (KRAS G13D; read-out: KRAS G13D FRET IC50): 1 to 10 µM; IC50 (KRAS WT; read-out: KRAS WT FRET IC50): 1 to 10 µM; IC50 (KRAS G12C; read-out: KRAS G12C FRET data IC50): 1 to 10 µM; IC50 (NRAS G12C; read-out: NRAS G12C FRET data IC50): > 10 µM; IC50 (KRAS G12S; read-out: KRAS G12S FRET IC50): > 10 µM; IC50 (KRAS G13C; read-out: KRAS G13C FRET IC50): > 10 µM |
| CCn1c(-c2cnccc2COC)c2c3cc(ccc31)-c1cc(O)cc(c1)C[C@H](NC(=O)[C@H](C(C)C)N(C)C(=O)CN(C)C(=O)[C@@H]1N[C@@H]1C1CC1)C(=O)N1CCC[C@H](N1)C(=O)OCC(C)(C)C2 [Example 103] |  |  | 0.01 to 0.1 | < 5 | 0.1 to 1 | 0.1 to 1 | 0.01 to 0.1 | 0.1 to 1 | 0.01 to 0.1 | 0.01 to 0.1 | 0.01 to 0.1 | 0.01 to 0.1 | 0.01 to 0.1 |  |
| CC#CC(=O)N1CC[C@]2(CCN([C@H](C(=O)N[C@H]3Cc4cccc(c4)-c4ccc5c(c4)c(c(-c4cccnc4[C@H](C)OC)n5CC)CC(C)(C)COC(=O)[C@@H]4CCCN(N4)C3=O)C(C)C)C2=O)C1 (single isomer, unassigned) [Compound A426] | > 10 | 1 to 10 |  |  |  |  |  |  |  |  |  |  |  |  |
| CCn1c(-c2cccnc2COC)c2c3cc(ccc31)-c1cc(O)cc(c1)C[C@H](NC(=O)[C@H](C(C)C)N(C)C(=O)[C@H]1CCN(C(=O)/C=C\CN(C)C)C1)C(=O)N1CCC[C@H](N1)C(=O)OCC(C)(C)C2 [Compound A161] | 1 to 10 | 0.1 to 1 |  |  |  |  |  |  |  |  |  |  |  |  |
| CCn1c(-c2cccnc2[C@H](C)OC)c2c3cc(ccc31)-c1cccc(c1)C[C@H](NC(=O)[C@H](C(C)C)N1CC[C@]3(CCN(C(=O)C#CC(C)(C)N(C)C)C3)C1=O)C(=O)N1CCC[C@H](N1)C(=O)OCC(C)(C)C2 [Compound A414] | > 10 |  |  |  |  |  |  |  |  |  |  |  |  |  |
| CCn1c(-c2cccnc2[C@H](C)OC)c2c3cc(ccc31)-c1cc(cc(C(F)F)c1)C[C@H](NC(=O)[C@@H](COC1CN(C(=O)C#CC(C)(C)N(C)C)C1)C(C)C)C(=O)N1CCC[C@H](N1)C(=O)OCC(C)(C)C2 [Compound A404] | > 10 | 0.1 to 1 |  |  |  |  |  |  |  |  |  |  |  |  |
| CCn1c(-c2cnccc2COC)c2c3cc(ccc31)-c1cc(O)cc(c1)C[C@H](NC(=O)[C@H](C(C)C)N(C)C(=O)CN(C)C(=O)[C@H]1N[C@@H]1c1ccccc1)C(=O)N1CCC[C@H](N1)C(=O)OCC(C)(C)C2 [Example 12] |  |  | 0.01 to 0.1 | < 5 | 0.1 to 1 | 0.1 to 1 | 0.1 to 1 | 0.01 to 0.1 | 0.01 to 0.1 | 0.01 to 0.1 | 0.01 to 0.1 | 0.01 to 0.1 | 0.01 to 0.1 |  |
| CCn1c(-c2cccnc2COC)c2c3cc(ccc31)-c1cc(C)cc(c1)C[C@H](NC(=O)[C@@H](C(C)C)N(C)C(=O)[C@H]1CCN(C(=O)C#CCN(C)C)C1)C(=O)N1CCC[C@H](N1)C(=O)OCC(C)(C)C2 [Compound A156] | 1 to 10 | 0.1 to 1 |  |  |  |  |  |  |  |  |  |  |  |  |
| CCn1c(-c2cccnc2COC)c2c3cc(ccc31)-c1cc(O)cc(c1)C[C@H](NC(=O)[C@H](C(C)C)N(C)C(=O)CCNC(=O)NCCCl)C(=O)N1CCC[C@H](N1)C(=O)OCC(C)(C)C2 [Example 25, (2S)-2-(3-(3-(2-chloroethyl)ureido)-N-methylpropanamido)-N-((6^3S,4S)-1^1-ethyl-25-hydroxy-1^2-(2-(methoxymethyl)pyridin-3-yl)-10,10-dimethyl-5,7-dioxo-6^1,6^2,6^3,6^4,6^5,6^6-hexahydro-1^1H-8-oxa-1 (5,3)-indola-6 (1,3)-pyridazina-2 (1,3)-benzenacycloundecaphane-4-yl)-3-methylbutanamide] |  |  | 1 to 10 |  | > 10 |  | > 10 | 1 to 10 | 1 to 10 | 1 to 10 | > 10 | > 10 | 1 to 10 |  |
| CCn1c(-c2cnccc2COC)c2c3cc(ccc31)-c1cc(O)cc(c1)C[C@H](NC(=O)[C@H](C(C)C)N(C)C(=O)CN(C)C(=O)[C@@H]1N[C@H]1c1ccccc1)C(=O)N1CCC[C@H](N1)C(=O)OCC(C)(C)C2 [Example 11] |  |  | 0.01 to 0.1 | < 5 | 0.1 to 1 | 1 to 10 | 1 to 10 | 0.1 to 1 | 0.1 to 1 | 0.01 to 0.1 | 0.01 to 0.1 | 0.01 to 0.1 | 0.01 to 0.1 |  |
| CCn1c(-c2cnccc2COC)c2c3cc(ccc31)-c1cc(O)cc(c1)C[C@H](NC(=O)[C@H](C(C)C)N(C)C(=O)CN(C)C(=O)[C@H]1N[C@H]1C1CC1)C(=O)N1CCC[C@H](N1)C(=O)OCC(C)(C)C2 [Example 104] |  |  | 0.1 to 1 | < 5 |  | 1 to 10 | 0.1 to 1 | 0.1 to 1 | 0.1 to 1 | 0.01 to 0.1 | 0.01 to 0.1 | 0.01 to 0.1 | 0.01 to 0.1 |  |
